# Source: patent US8992932B2, “Binder-drug conjugates (ADCs) and use thereof” (Seattle Genetics, Inc., priority 2011, dated 2015)
# Where “and” joins values, the source holds several entries; their conditions need not be identical. Identical values can stand only once. Counter-ions that a name gives are not always drawn. Square brackets hold non-standard residues; d marks the D form. Peptide text beside a SMILES is read from it. * marks the point of attachment. X2 = CC(C)[C@@H](C(=O)*)N(C)CCCCCCN1C(=O)CC(SC[C@H](N)C(=O)O)C1=O; X3 = CC(C)[C@@H](C(=O)*)N(C)CCOCCOCCOCCC(=O)NCCCC[C@H](N)C(=O)O; X1 = CC(C)[C@@H](C(=O)*)N(C)CCCCCC(=O)NCCCC[C@H](N)C(=O)O; Dolaproine = CO[C@@H]([C@@H]1CCCN1)[C@@H](C)C(=O)O; Dil = CC[C@H](C)[C@H](NC)[C@@H](CC(=O)O)OC; Oxazinan2yl(1,2) = C1CCN(*)OC1; NMeV = CN[C@H](C(=O)O)C(C)C
# Test system: Caco-2 cells
# Experiment: Cell permeability flux assay using Caco-2 cells
# Type: in vitro ADME
# Conditions: basal to apical, 2 hours
# Procedure: The cell permeability of a substance can be investigated by means of in vitro testing in a flux assay using Caco-2 cells [M. D. Troutman and D R Thakker, Pharm. Res. 20 (8), 1210-1224 (2003)]. For this purpose, the cells were cultured for 15-16 days on 24-well filter plates. For the determination of permeation, the respective working example was applied in a HEPES buffer to the cells either apically (A) or basally (B) and incubated for 2 hours. After 0 hours and after 2 hours, samples were taken from the cis and trans compartments. The samples were separated by HPLC (Agilent 1200, Boblingen, Germany) using reverse phase columns. The HPLC system was coupled via a Turbo Ion Spray Interface to a Triple Quadropol mass spectrometer API 4000 (Applied Biosystems Applera, Darmstadt, Germany). The permeability was evaluated on the basis of a Papp value, which was calculated using the formula published by Schwab et al. [D. Schwab et al., J. Med. Chem. 46, 1716-1725 (2003)].
row,Compound,Papp (B-A)
1,"CC[C@H](C)[C@@H]([C@@H](CC(=O)N1CCC[C@H]1[C@H](OC)[C@@H](C)C(=O)N[C@@H](Cc1c[nH]c2ccccc12)C(N)=O)OC)N(C)C(=O)[C@@H](NC(=O)[C@H](C(C)C)N(C)CCCC(=O)NNC(=O)CCCCCN1C(=O)CC(SC[C@H](N)C(=O)O)C1=O)C(C)C (stereo partly drawn) [Example 71, N-(4-{2-[6-(3-{[(2R)-2-Amino-2-carboxyethyl]sulphanyl}-2,5-dioxopyrrolidin-1-yl)hexanoyl]hydrazino}-4-oxobutyl)-N-methyl-L-valyl-N-[(3R,4S,5S)-1-{(2S)-2-[(1R,2R)-3-{[(2S)-1-amino-3-(1H-indol-3-yl)-1-oxopropan-2-yl]amino}-1-methoxy-2-methyl-3-oxopropyl]pyrrolidin-1-yl}-3-methoxy-5-methyl-1-oxoheptan-4-yl]-N-methyl-L-valinamide]",0.2 ×10⁻⁶ cm/s
2,"CC[C@H](C)[C@@H]([C@@H](CC(=O)N1CCC[C@H]1[C@H](OC)[C@@H](C)C(=O)N[C@@H](Cc1c[nH]c2ccccc12)C(=O)O)OC)N(C)C(=O)[C@@H](NC(=O)[C@H](C(C)C)N(C)CCCC(=O)NNC(=O)CCCCCN1C(=O)CC(SC[C@H](N)C(=O)O)C1=O)C(C)C (stereo partly drawn) [Example 72, N-(4-{2-[6-(3-{[(2R)-2-Amino-2-carboxyethyl]sulphanyl}-2,5-dioxopyrrolidin-1-yl)hexanoyl]hydrazino}-4-oxobutyl)-N-methyl-L-valyl-N-[(3R,4S,5S)-1-{(2S)-2-[(1R,2R)-3-{[(1S)-1-carboxy-2-(1H-indol-3-yl)ethyl]amino}-1-methoxy-2-methyl-3-oxopropyl]pyrrolidin-1-yl}-3-methoxy-5-methyl-1-oxoheptan-4-yl]-N-methyl-L-valinamide]",0.16 ×10⁻⁶ cm/s
3,"CC[C@H](C)[C@@H]([C@@H](CC(=O)N1CCC[C@H]1[C@H](OC)[C@@H](C)C(=O)N[C@@]1(C(=O)N2CCCCO2)C[C@@H]1c1ccccc1)OC)N(C)C(=O)[C@@H](NC(=O)[C@H](C(C)C)N(C)CCCC(=O)NNC(=O)CCCCCN1C(=O)CC(SC[C@H](N)C(=O)O)C1=O)C(C)C (stereo partly drawn) [Example 73, N-(4-{2-[6-(3-{[(2R)-2-Amino-2-carboxyethyl]sulphanyl}-2,5-dioxopyrrolidin-1-yl)hexanoyl]hydrazino}-4-oxobutyl)-N-methyl-L-valyl-N-[(3R,4S,5S)-3-methoxy-1-{(2S)-2-[(1R,2R)-1-methoxy-2-methyl-3-{[(1S,2R)-1-(1,2-oxazinan-2-ylcarbonyl)-2-phenylcyclopropyl]amino}-3-oxopropyl]pyrrolidin-1-yl}-5-methyl-1-oxoheptan-4-yl]-N-methyl-L-valinamide]",0.25 ×10⁻⁶ cm/s
4,"CC[C@H](C)[C@@H]([C@@H](CC(=O)N1CCC[C@H]1[C@H](OC)[C@@H](C)C(=O)N[C@@H](Cc1c[nH]c2ccccc12)C(N)=O)OC)N(C)C(=O)[C@@H](NC(=O)[C@H](C(C)C)N(C)CCCCCCN1C(=O)CC(SC[C@H](N)C(=O)O)C1=O)C(C)C (stereo partly drawn) [Example 74, N-[6-(3-{[(2R)-2-Amino-2-carboxyethyl]sulphanyl}-2,5-dioxopyrrolidin-1-yl)hexyl]-N-methyl-L-valyl-N-[(3R,4S,5S)-1-{(2S)-2-[(1R,2R)-3-{[(2S)-1-amino-3-(1H-indol-3-yl)-1-oxopropan-2-yl]amino}-1-methoxy-2-methyl-3-oxopropyl]pyrrolidin-1-yl}-3-methoxy-5-methyl-1-oxoheptan-4-yl]-N-methyl-L-valinamide] (X2-V[Dil][Dolaproine]W-NH2)",0.5 ×10⁻⁶ cm/s
5,"CC[C@H](C)[C@@H]([C@@H](CC(=O)N1CCC[C@H]1[C@H](OC)[C@@H](C)C(=O)N[C@@H](Cc1c[nH]c2ccccc12)C(=O)NCc1ccccc1)OC)N(C)C(=O)[C@@H](NC(=O)[C@H](C(C)C)N(C)CCCC(=O)NNC(=O)CCCCCN1C(=O)CC(SC[C@H](N)C(=O)O)C1=O)C(C)C (stereo partly drawn) [Example 77, N-(4-{2-[6-(3-{[(2R)-2-Amino-2-carboxyethyl]sulphanyl}-2,5-dioxopyrrolidin-1-yl)hexanoyl]hydrazino}-4-oxobutyl)-N-methyl-L-valyl-N-[(3R,4S,5S)-1-{(2S)-2-[(1R,2R)-3-{[(2S)-1-(benzylamino)-3-(1H-indol-3-yl)-1-oxopropan-2-yl]amino}-1-methoxy-2-methyl-3-oxopropyl]pyrrolidin-1-yl}-3-methoxy-5-methyl-1-oxoheptan-4-yl]-N-methyl-L-valinamide]",0.7 ×10⁻⁶ cm/s
6,"CC[C@H](C)[C@@H]([C@@H](CC(=O)N1CCC[C@H]1[C@H](OC)[C@@H](C)C(=O)N[C@@H](Cc1c[nH]c2ccccc12)C(=O)N1CCCCO1)OC)N(C)C(=O)[C@@H](NC(=O)[C@H](C(C)C)N(C)CCCCCC(=O)NCCCC[C@H](N)C(=O)O)C(C)C [Example 115, N-(6-{[(55)-5-Amino-5-carboxypentyl]amino}-6-oxohexyl)-N-methyl-L-valyl-N-[(3R,4S,5S)-1-{(2S)-2-[(1R,2R)-3-{[(2S)-3-(1H-indol-3-yl)-1-(1,2-oxazinan-2-yl)-1-oxopropan-2-yl]amino}-1-methoxy-2-methyl-3-oxopropyl]pyrrolidin-1-yl}-3-methoxy-5-methyl-1-oxoheptan-4-yl]-N-methyl-L-valinamide trifluoroacetate] (X1-V[Dil][Dolaproine]W-{Oxazinan2yl(1,2)})",0.2 ×10⁻⁶ cm/s
7,"CC[C@H](C)[C@@H]([C@@H](CC(=O)N1CCC[C@H]1[C@H](OC)[C@@H](C)C(=O)N[C@@H](Cc1c[nH]c2ccccc12)C(=O)O)OC)N(C)C(=O)[C@@H](NC(=O)[C@H](C(C)C)N(C)CCCCCC(=O)NCCCC[C@H](N)C(=O)O)C(C)C [Example 116, N-(6-{[(55)-5-Amino-5-carboxypentyl]amino}-6-oxohexyl)-N-methyl-L-valyl-N-[(3R,4S,5S)-1-{(2S)-2-[(1R,2R)-3-{[(1S)-1-carboxy-2-(1H-indol-3-yl)ethyl]amino}-1-methoxy-2-methyl-3-oxopropyl]pyrrolidin-1-yl}-3-methoxy-5-methyl-1-oxoheptan-4-yl]-N-methyl-L-valinamide] (X1-V[Dil][Dolaproine]W-OH)",0.1 ×10⁻⁶ cm/s
8,"CC[C@H](C)[C@@H]([C@@H](CC(=O)N1CCC[C@H]1[C@H](OC)[C@@H](C)C(=O)N[C@@H](Cc1ccc(O)cc1)C(=O)N1CCCCO1)OC)N(C)C(=O)[C@@H](NC(=O)[C@H](C(C)C)N(C)CCCCCC(=O)NCCCC[C@H](N)C(=O)O)C(C)C [Example 127, N-(6-{[(55)-5-Amino-5-carboxypentyl]amino}-6-oxohexyl)-N-methyl-L-valyl-N-[(3R,4S,5S)-1-{(2S)-2-[(1R,2R)-3-{[(2S)-3-(4-hydroxyphenyl)-1-(1,2-oxazinan-2-yl)-1-oxopropan-2-yl]amino}-1-methoxy-2-methyl-3-oxopropyl]pyrrolidin-1-yl}-3-methoxy-5-methyl-1-oxoheptan-4-yl]-N-methyl-L-valinamide trifluoroacetate] (X1-V[Dil][Dolaproine]Y-{Oxazinan2yl(1,2)})",0.15 ×10⁻⁶ cm/s

# Test system: tubulin
# Experiment: Fluorescence-based microtubule polymerisation assay (DAPI)
# Type: biochemical
# Conditions: not given
# Procedure: Tubulin polymerization was investigated using the “Fluorescence-based Microtubule Polymerisation Assay Kit” from Cytoskeleton (Denver, Colo., USA; order number: BK011). With this assay, GTP is added to unpolymerized tubulin, allowing polymerization to take place spontaneously. The assay is based on the binding of the fluorophore 4′,6-diamidino-2-phenylindole (DAPI) to tubulin. Free and bound DAPI can be differentiated on the basis of different emission spectra.
# […] In addition to the buffer control, paclitaxel, with a polymerization-increasing effect, and vinblastin, with a polymerization inhibiting effect, were run additionally as assay controls. Measurement was carried out using 96-well plates with a half base area. The kinetics of the tubulin polymerization were monitored in a Fluorimeter at 37° C. for 1 hour. The excitation wavelength was 355 nm, and emission was monitored at 460 nm. For the region of linear increase within the first 10 minutes, a calculation was made of the change in fluorescence per minute (AF/min), which represents the polymerization rate of the microtubuli. The potency of the test substances was quantified on the basis of their respective reduction of the polymerization rate.
row,Compound,Effect on tubulin polymerization (in words)
1,"CC[C@H](C)[C@@H]([C@@H](CC(=O)N1CCC[C@H]1[C@H](OC)[C@@H](C)C(=O)N[C@@H](Cc1ccccc1)C(=O)O)OC)N(C)C(=O)[C@@H](NC(=O)[C@@H](NC)C(C)C)C(C)C [MMAF, monomethylauristatin F, reference compound] (H-[NMeV]V[Dil][Dolaproine]F-OH)",inhibit tubulin polymerization as a function of their concentration

# Same assay, conditions: toxophore 1 μM; trifluoroacetate
row,Compound,Tubulin polymerization in the presence of toxophore in [%]. Tubulin polymerization rate at 1 μM MMAF set at 100%
1,"CC[C@H](C)[C@@H]([C@@H](CC(=O)N1CCC[C@H]1[C@H](OC)[C@@H](C)C(=O)N[C@@H](Cc1c[nH]c2ccccc12)C(=O)N1CCCCO1)OC)N(C)C(=O)[C@@H](NC(=O)[C@H](C(C)C)N(C)CCOCCOCCOCCC(=O)NCCCC[C@H](N)C(=O)O)C(C)C [Example 117, N-[(18S)-18-Amino-18-carboxy-12-oxo-3,6,9-trioxa-13-azaoctadec-1-yl]-N-methyl-L-valyl-N-[(3R,4S,5S)-1-{(2S)-2-[(1R,2R)-3-{[(2S)-3-(1H-indol-3-yl)-1-(1,2-oxazinan-2-yl)-1-oxopropan-2-yl]amino}-1-methoxy-2-methyl-3-oxopropyl]pyrrolidin-1-yl}-3-methoxy-5-methyl-1-oxoheptan-4-yl]-N-methyl-L-valinamide trifluoroacetate] (X3-V[Dil][Dolaproine]W-{Oxazinan2yl(1,2)})",60% and 78%
